Tests used:
[1] = test system: GADD45β (X54149), GADD45 (U00937), AV138783, AI847051, AF055638, AI461837; experiment: gene expression analysis (Affymetrix mouse microarray chip U74); assay type: cell-based; details: L5178Y cells treated four hours
Description: Mouse lymphoma cell line L5178Y (ATCC No. CRL 9518, ATCC) were cultivated in RPMI medium (Invitrogen Life Technologies, Inc., Carlsbad, Calif.) supplemented with 10% fetal bovine serum and antibiotics penicillin and streptomycin at 37° C. Cells from exponentially growing cultures were seeded at a concentration 3×10^5 cells/ml and incubated for 24 hours and maintained below 1×10^6 cells/ml. […] After the treatment, the cells were washed in PBS (Invitrogen Life Technologies, Inc., Carlsbad, Calif.). Half of the cells where then immediately frozen and stored at −80° C. prior to gene expression analysis, as described in Example 2 below. The other half was allowed to recover in a fresh growth medium for 20 hours. Cell viability was determined based on a cell count. Cell viability results appear in FIG. 1 and FIG. 2 as a ratio between treated versus vehicle control. […]
Gene expression was measured using Affymetrix GeneChip® technology (Affymetrix, Inc., Santa Clara, Calif.) using standard protocols available from Affymetrix (see, GeneChip® Expression Analysis, Technical Manual, Rev. 2 (2001), Affymetrix, Inc., available at http://www.affymetrix.com/pdf/expression_manual.pdf). […] The hybridized chips were scanned using a Hewlett Packard GeneArray™ Scanner, (Hewlett Packard Company, Palo Alto, Calif.) and the resulting data were evaluated using Affymetrix Microarray suite software (Affymetrix). […]

L5178Y cells = experiment: in vitro micronucleus assay; assay type: cell-based, mouse; details: L5178Y cells treated four hours, 20 hours recovery; sodium chloride at high concentrations
Description: Mouse lymphoma cell line L5178Y (ATCC No. CRL 9518, ATCC) were cultivated in RPMI medium (Invitrogen Life Technologies, Inc., Carlsbad, Calif.) supplemented with 10% fetal bovine serum and antibiotics penicillin and streptomycin at 37° C. Cells from exponentially growing cultures were seeded at a concentration 3×10^5 cells/ml and incubated for 24 hours and maintained below 1×10^6 cells/ml. […] After the treatment, the cells were washed in PBS (Invitrogen Life Technologies, Inc., Carlsbad, Calif.). […] The other half was allowed to recover in a fresh growth medium for 20 hours. Cell viability was determined based on a cell count. […] The cells were then harvested for use in the in vitro micronucleus assay of Example 3 below.
Treated cells prepared according to Example 1 were attached to glass slides by dropping them onto the glass slides using a pipette after hypotonic treatment with 75 mM KCl (Sigma-Aldrich Corp., St Louis, Mo.) and fixation with 3:1 (v/v) MeOH:acetic acid (JT Baker, Inc., Phillipsburg, N.J.). The cells were then stained using 31.25 μg/ml solution of acridine orange (Molecular Probes, Inc., Eugene, Oreg.).
Micronuclei were counted using a Axiokop 2 fluorescent microscopy (Carl Zeiss Microlmaging, Inc., Thornwood, N.Y.).

Compound | expression of GADD45β (X54149) and GADD45 (U00937) [1] | level of expression of these genes (GADD45β, GADD45, AV138783, AI847051, AF055638, AI461837) [1] | genotoxic stress, as demonstrated using a micronucleus assay (L5178Y cells)
N.N.[Cl][Pt][Cl] [cisplatin] | increased expression | – | –
[Cl-].[Na+] [sodium chloride] | – | no effect | show evidence of genotoxic stress
